Tests used:
[1] = molecular target: T1, HCV genotype 1b (BK) NS3 modified enzyme with a R155K mutation (Hepatitis C virus genotype 1b, UniProt P26663, R1181K); experiment: HCV NS3 protease time-resolved fluorescence (TRF) assay, genotype 1b R155K; type: biochemical; conditions: Ki 1b R155K
T1 construct: HCV genotype 1b (BK) NS3 modified enzyme
Procedure, shortened: (§1)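 Time-resolved fluorescence, ex 340/em 615 nm, 400 μs delay; IC50 by four-parameter fit. Enzyme preincubated with compound 10 min, then TRF substrate 25 nM final added and reaction run 6 h at RT. Buffer HEPES pH 7.5 with NaCl, glycerol, Triton X-100, DTT, PEG 8000.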

[2] = molecular target: HCV NS3 protease genotype 3a (3A-1) (Hepatitis C virus genotype 3a, UniProt Q81258); experiment: HCV NS3 protease time-resolved fluorescence (TRF) assay, genotype 3a; type: biochemical; conditions: Ki 3a
Procedure, shortened: as §1

[3] = genotype 1b (BK) NS3 R155K, single value
[4] = first of two values printed in the cell (not explained)
[5] = second of two values printed in the cell (not explained)

| Structure (SMILES) | Ki [1, 3] [nM] | Ki [2] [nM] | Ki [1, 4] [nM] | Ki [1, 5] [nM] |
| --- | --- | --- | --- | --- |
| C=CC1C[C@]1(NC(=O)[C@@H]1C[C@@H]2CN1C(=O)[C@H](C1CCCC1)NC(=O)O[C@@H]1CCC[C@H]1CC/C=C/Cc1c(nc3ccccc3c1OCCN1CCCC1)O2)C(=O)NS(=O)(=O)C1CC1 (stereo partly drawn) [Example 80, (3aR,7S,10S,12R,21E,24aS)-7-cyclo pentyl-N-{(1R,2S)-1-[(cyclopropylsulfonyl)carbamoyl]-2-ethenylcyclopropyl}-5,8-dioxo-19-[2-(pyrrolidin-1-yl)ethoxy]-1,2,3,3a,5,6,7,7,8,11,12,20,23,24,24a-tetradecahydro-10H-9,12-methanocyclopenta[18,19] [1,10,3,6]dioxa diazacyclononadecino[11,12-b] quinoline-10-carboxamide] | 0.2 | 2.4 | – | – |
| C=C[C@@H]1C[C@]1(NC(=O)[C@@H]1C[C@@H]2CN1C(=O)[C@H](C1CCCC1)NC(=O)N1CC[C@@H](C1)OCCCCCCc1c(nc3ccccc3c1OCC)O2)C(=O)NS(=O)(=O)C1CC1 [Example 33, (2R,4S,7S,13S)-7-cyclopentyl-N-{(1R,2S)-1-[(cyclopropylsulfonyl)carbamoyl]-2-ethenylcyclopropyl}-21-ethoxy-6,9-dioxo-3,4,6,7,8,9,12, 13,15,16,17,18,19,20-tetradecahydro-2H,11H-2,5:10,13-dimethano[1,14,5,7,10]dioxatriazacyclo docosino[15,16-b]quinoline-4-carboxamide] | 0.32 | 22 | – | – |
| C=C[C@@H]1C[C@]1(NC(=O)[C@@H]1C[C@@H]2CN1C(=O)[C@H](C1CCCC1)NC(=O)O[C@@H]1CCC[C@H]1CC/C=C/Cc1c(nc3ccccc3c1O)O2)C(=O)NS(=O)(=O)C1CC1 [Example 17, (3aR,7S,10S,12R,21E,24aS)-7-cyclopentyl-N-{(1R,2S)-1-[(cyclopropylsulfonyl)carbamoyl]-2-ethenylcyclopropyl}-19-hydroxy-5,8-dioxo-1,2,3,3a,5,6,7,8,11,12,20,23,24,24a-tetradecahydro-10H-9,12-methanocyclopenta[18,19][1,10,3,6]dioxadiazacyclononadecino[11,12-b]quinoline-10-carboxamide] | < 0.016 | 0.45 | – | – |
| C=C[C@@H]1C[C@]1(NC(=O)[C@@H]1C[C@@H]2CN1C(=O)[C@H](C(C)(C)C)NC(=O)O[C@@H]1C[C@H]1CCCCCc1c(nc3ccccc3c1-c1cccnc1)O2)C(=O)NS(=O)(=O)C1(C)CC1 [Example 246, (1aR,5S,8S,10R,22aR)-5-tert-butyl-N-[(1R,2S)-2-ethenyl-1-{[(1-methylcyclopropyl)sulfonyl]carbamoyl}cyclopropyl]-3,6-dioxo-17-(pyridin-3-yl)-1,1a,3,4,5,6,9,10,18,19,20,21,22,22a-tetradecahydro-8H-7,10-methanocyclopropa[18,19][1,10,3,6]dioxadiazacyclononadecino[11,12-b]quinoline-8-carboxamide] | – | 211 | 1.02 | 1.14 |
| C=C[C@@H]1C[C@]1(NC(=O)[C@@H]1C[C@@H]2CN1C(=O)[C@H](C1CCCC1)NC(=O)O[C@@H]1CCC[C@H]1CC/C=C/Cc1c(nc3ccccc3c1OCCOC)O2)C(=O)NS(=O)(=O)C1CC1 [Example 46, (3aR,7S,10S,12R,21E,24aS)-7-cyclopentyl-N-{(1R,2S)-1-[(cyclopropylsulfonyl)carbamoyl]-2-ethenylcyclopropyl}-19-(2-methoxyethoxy)-5,8-dioxo-1,2,3,3a,5,6,7,8,11,12,20,23,24,24a-tetradecahydro-10H-9,12-methanocyclopenta[18,19][1,10,3,6] dioxadiazacyclononadecino[11,12-b] quinoline-10-carboxamide] | 0.15 | 4 | – | – |
| C=C[C@@H]1C[C@]1(NC(=O)[C@@H]1C[C@@H]2CN1C(=O)[C@H](C(C)(C)C)NC(=O)O[C@]1(C)C[C@H]1CCCCCc1c(nc3ccccc3c1OCCN1CCOCC1)O2)C(=O)NS(=O)(=O)C1(COC)CC1 [Example 99, (1aR,5S,8S,10R,22aR)-5-tert-butyl-N-[(1R,2S)-2-ethenyl-1-({[1-(methoxymethyl)cyclopropyl]sulfonyl}carbamoyl)cyclopropyl]-1a-methyl-17-[2-(morpholin-4-yl)ethoxy]-3,6-dioxo-1,1a, 3,4,5,6,9,10,18,19,20,21,22,22a-tetradecahydro-8H-7,10-methano-cyclopropa[18,19][1,10,3,6] dioxadiazacyclononadecino [11,12-b]quinoline-8-carboxamide] | 0.28 | 2.8 | – | – |
| C=C[C@@H]1C[C@]1(NC(=O)[C@@H]1C[C@@H]2CN1C(=O)[C@H](C1CCCC1)NC(=O)O[C@@H]1CCC[C@H]1CCCCCc1c(nc3ccccc3c1O)O2)C(=O)NS(=O)(=O)C1CC1 [Example 34, (3aR,7S,10S,12R,24aR)-7-cyclo pentyl-N-{(1R,2S)-1-[(cyclopropylsulfonyl)carbamoyl]-2-ethenylcyclopropyl}-19-hydroxy-5,8-dioxo-1,2,3,3a,5,6,7,8,11,12,20,21,22,23,24,24a-hexadecahydro-10H-9,12-methanocyclopenta [18,19][1,10,3,6]dioxadiazacyclononadecino [11,12-b]quinoline-10-carboxamide] | 0.1 | 1.8 | – | – |
| C=C[C@@H]1C[C@]1(NC(=O)[C@@H]1C[C@@H]2CN1C(=O)[C@H](C(C)(C)C)NC(=O)O[C@@H]1C[C@H]1CCCCCc1c(nc3ccccc3c1OCC1CN(C)C1)O2)C(=O)NS(=O)(=O)C1(C)CC1 [Example 224, (1aR,5S,8S,10R,22aR)-5-tert-butyl-N-[(1R,2S)-2-ethenyl-1-{[(1-methylcyclopropyl)sulfonyl]carbamoyl}cyclopropyl]-17-[(1-methylazetidin-3-yl)methoxy]-3,6-dioxo-1,1a,3,4,5,6,9,10,18,19,20,21,22,22a-tetradecahydro-8H-7,10-methanocyclopropa[18,19][1,10,3,6]dioxadiazacyclononadecino[11,12-b]quinoline-8-carboxamide] | 0.061 | 0.67 | – | – |
| CC1(S(=O)(=O)NC(=O)[C@@]23C[C@H]2/C=C\CCCCC[C@@H]2NC(=O)O[C@@H]4C[C@H]4CCC/C=C/c4c(nc5ccccc5c4OCCN4CCOCC4)O[C@@H]4C[C@@H](C(=O)N3)N(C4)C2=O)CC1 [Example 297, (1aR,5S,11Z,12aS,13aR,16S,19R,27E, 31aR)-N-[(1-methylcyclopropyl)sulfonyl]-26-[2-(morpholin-4-yl)ethoxy]-3,15,33-trioxo-1,1a,3,4,5,6,7,8,9,10,12a,13,15,16,18,19,29, 30,31,31a-icosahydro-5,17:16,19-dimethanodicyclopropa[12,13:28,29][1,20,3, 14,17]dioxatriazacyclononacosino[21,22-b]quinoline-13a(14H)-carboxamide] | 0.27 | 4.3 | – | – |
| C=C[C@@H]1C[C@]1(NC(=O)[C@@H]1C[C@@H]2CN1C(=O)[C@H](C1CCCCC1)NC(=O)O[C@@H]1C[C@H]1CCCCCc1c(nc3ccccc3c1OCCCN1CC(F)(F)C1)O2)C(=O)NS(=O)(=O)C1(C)CC1 [Example 249, (1aR,5S,8S,10R,22aR)-5-cyclohexyl-17-[3-(3,3-difluoroazetidin-1-yl)propoxy]-N-[(1R,2S)-2-ethenyl-1-{[(1-methylcyclopropyl)sulfonyl]carbamoyl}cyclopropyl]-3,6-dioxo-1,1a,3,4,5,6,9,10,18,19,20,21,22,22a-tetradecahydro-8H-7,10-methanocyclopropa[18,19][1,10,3,6]dioxadiazacyclononadecino[11,12-b]quinoline-8-carboxamide] | – | 7.55 | 0.026 | 0.5 |

From US9328138B2 (priority 2011, dated 2016)
